Literature values as cited in publication PMC7766225, “Structure-Based Discovery and Bioactivity Evaluation of Novel Aurora-A Kinase Inhibitors as Anticancer Agents via Docking-Based Comparative Intermolecular Contacts Analysis (dbCICA)” (Molecules, 2020).

Target: T1, Aurora-A kinase (Homo sapiens, UniProt O14965)
T1 construct: purchased Invitrogen (Carlsbad, CA, USA)
T1 sequence (O14965 1-403): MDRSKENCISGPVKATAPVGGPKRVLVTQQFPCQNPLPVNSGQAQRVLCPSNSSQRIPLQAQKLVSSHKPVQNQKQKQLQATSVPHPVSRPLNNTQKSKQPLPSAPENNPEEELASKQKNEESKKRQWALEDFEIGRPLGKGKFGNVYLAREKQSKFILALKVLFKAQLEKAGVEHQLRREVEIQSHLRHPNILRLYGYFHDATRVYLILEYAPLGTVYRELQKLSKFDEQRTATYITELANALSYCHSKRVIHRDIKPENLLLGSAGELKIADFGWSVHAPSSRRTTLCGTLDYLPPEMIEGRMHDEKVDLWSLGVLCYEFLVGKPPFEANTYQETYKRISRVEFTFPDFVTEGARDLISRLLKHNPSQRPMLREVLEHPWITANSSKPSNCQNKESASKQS
Details: Table S1, ChEMBL; ref Bebbington, et al., 2009; cited from earlier work

| SMILES | Ki [nM] |
| --- | --- |
| Cc1cc(Nc2nc(-c3ccncc3)nc3ccccc23)n[nH]1 [Compound 29] | 81 |
| CC(=O)Nc1ccc(Sc2nccc(Nc3cc(C)[nH]n3)n2)cc1 [Compound 49] | 86 |
| CC(=O)Nc1ccc(Sc2nc(C)cc(Nc3cc(C)[nH]n3)n2)cc1 [Compound 50] | 18 |
| CC(=O)Nc1ccc(Sc2nc(Nc3cc(C)[nH]n3)cc(-c3ccccc3)n2)cc1 [Compound 51] | 2.4 |
| CCC(=O)Nc1ccc(Sc2nc(Nc3cc(C)[nH]n3)cc(C(C)(C)C)n2)cc1 [Compound 54] | 10 |
| CCC(=O)Nc1ccc(Sc2nc(Nc3cc(C)[nH]n3)cc(-c3cccnc3)n2)cc1 [Compound 55] | 3.9 |
| CCC(=O)Nc1ccc(Sc2nc(Nc3cc(C)[nH]n3)cc(N3CCC3)n2)cc1 [Compound 56] | 2.4 |
| CCC(=O)Nc1ccc(Sc2nc(Nc3cc(C)[nH]n3)cc(N3CCCCC3)n2)cc1 [Compound 57] | 1.6 |
| CCC(=O)Nc1ccc(Sc2nc(Nc3cc(C)[nH]n3)cc(N3CCOCC3)n2)cc1 [Compound 58] | 1.7 |
| CCC(=O)Nc1ccc(Sc2nc(Nc3cc(C)[nH]n3)cc(N3CCNCC3)n2)cc1 [Compound 59] | 3.7 |
| CCC(=O)Nc1ccc(Sc2nc(Nc3cc(C)[nH]n3)cc(N3CCN(C)CC3)n2)cc1 [Compound 60] | 1.6 |
| CCC(=O)Nc1ccc(Sc2nc(Nc3cc(C)[nH]n3)cc(N3CCN(C(C)(C)C)CC3)n2)cc1 [Compound 61] | 1.3 |

Same assay, conditions: Table S1, ChEMBL; ref Mortlock, et al., 2007; cited from earlier work

| SMILES | Ki [nM] |
| --- | --- |
| COc1cc2c(Nc3cc(CC(=O)Nc4ccc(F)cc4)[nH]n3)ncnc2cc1OCCCN1CCC(CO)CC1 [Compound 4] | 2000 |
| COc1cc2c(Nc3cc(CC(=O)Nc4cccc(F)c4F)[nH]n3)ncnc2cc1OCCCN1CCC(CO)CC1 [Compound 5] | 410 |
| COc1cc2c(Nc3cc(CC(=O)Nc4cc(F)cc(F)c4)[nH]n3)ncnc2cc1OCCCN1CCC(CO)CC1 [Compound 6] | 230 |
| COc1cc2c(Nc3cc(CC(=O)Nc4cccc(Cl)c4)[nH]n3)ncnc2cc1OCCCN1CCC(CO)CC1 [Compound 7] | 450 |
| COc1cc2c(Nc3cc(CC(=O)Nc4cccc(C#N)c4)[nH]n3)ncnc2cc1OCCCN1CCC(CO)CC1 [Compound 8] | 2600 |
| COc1cc2c(Nc3cc(CC(=O)Nc4cccc(O)c4)[nH]n3)ncnc2cc1OCCCN1CCC(CO)CC1 [Compound 9] | 4000 |
| COc1cccc(NC(=O)Cc2cc(Nc3ncnc4cc(OCCCN5CCC(CO)CC5)c(OC)cc34)n[nH]2)c1 [Compound 10] | 1900 |
| COc1cc2c(Nc3cc(CC(=O)Nc4cccc(C(F)(F)F)c4)[nH]n3)ncnc2cc1OCCCN1CCC(CO)CC1 [Compound 11] | 510 |
| COc1cc2c(Nc3cc(CC(=O)Nc4cccc(F)c4F)[nH]n3)ncnc2cc1OCCCN1CCN(CCO)CC1 [Compound 12] | 55 |
| COc1cc2c(Nc3cc(CC(=O)Nc4cccc(F)c4F)[nH]n3)ncnc2cc1OCCCN1CCC(O)CC1 [Compound 13] | 220 |
| COc1cc2c(Nc3cc(CC(=O)Nc4cccc(F)c4F)[nH]n3)ncnc2cc1OCCCN1CCC(CCO)CC1 [Compound 14] | 280 |
| COc1cc2c(Nc3cc(CC(=O)Nc4cccc(F)c4)[nH]n3)ncnc2cc1OCCCNCCO [Compound 15] | 690 |
| COc1cc2c(Nc3cc(CC(=O)Nc4cccc(F)c4)[nH]n3)ncnc2cc1OCCCN(C)CCO [Compound 16] | 65 |
| CCN(CCO)CCCOc1cc2ncnc(Nc3cc(CC(=O)Nc4cccc(F)c4)[nH]n3)c2cc1OC [Compound 17] | 190 |
| CCCN(CCO)CCCOc1cc2ncnc(Nc3cc(CC(=O)Nc4cccc(F)c4)[nH]n3)c2cc1OC [Compound 18] | 220 |
| CCN(CCO)CCCOc1cc2ncnc(Nc3cc(CC(=O)Nc4cccc(F)c4F)[nH]n3)c2cc1OC [Compound 19] | 360 |
| COc1cc2c(Nc3cc(CC(=O)Nc4cccc(F)c4F)[nH]n3)ncnc2cc1OCCCN(CCO)CC(C)C [Compound 21] | 18 |
| CCCN(CCO)CCCOc1ccc2c(Nc3cc(CC(=O)Nc4cccc(F)c4F)[nH]n3)ncnc2c1 [Compound 23] | 350 |
| CCCN(CCO)CCCOc1ccc2c(Nc3cc(CC(=O)Nc4cccc(F)c4)[nH]n3)ncnc2c1 [Compound 25] | 980 |

Same assay, conditions: Table S1, ChEMBL; ref Pollard and Mortimore, 2009; cited from earlier work

| SMILES | Ki [nM] |
| --- | --- |
| Cc1cc(Nc2nc(-c3ccccc3)nc3ccccc23)n[nH]1 [Compound 27] | 58 |
| CC(=O)Nc1ccc(Sc2nc(Nc3cc(C)[nH]n3)c3ccccc3n2)cc1 [Compound 28] | 4 |

Same assay, conditions: Table S1, ChEMBL; ref Wang, et al., 2010; cited from earlier work

| SMILES | Ki [nM] |
| --- | --- |
| Cc1nc(C)c(-c2ccnc(Nc3ccc(N(C)C)cc3)n2)s1 [Compound 65] | 6.9 |
| CNc1ccc(Nc2nccc(-c3sc(C)nc3C)n2)cc1 [Compound 66] | 18 |
| Cc1nc(C)c(-c2ccnc(Nc3ccc(N)cc3)n2)s1 [Compound 67] | 31 |
| COc1cc(Nc2nccc(-c3sc(C)nc3C)n2)cc(OC)c1OC [Compound 68] | 0.4 |
| CNc1nc(C)c(-c2ccnc(Nc3cc(OC)c(OC)c(OC)c3)n2)s1 [Compound 69] | 1 |
| CCNc1nc(C)c(-c2ccnc(Nc3cc(OC)c(OC)c(OC)c3)n2)s1 [Compound 70] | 3 |
